In ChEMBL document CHEMBL5214998, “Development of Macrocyclic PRMT5-Adaptor Protein Interaction Inhibitors” (J Med Chem, 2022) one finds Kd data, which are given here for 22 compounds.

Numbered stars: 1 amine (or outer) side, 2 acyl side, 3 side chain; on linkers, the order of the positions; unused ones are H or OH. Bridge positions count the residues as written; N and C are the ends. Square brackets hold non-standard residues; d marks the D form. Peptide text beside a SMILES is read from it. * marks the point of attachment. FITC = O=C1OC2(c3ccc(O)cc3Oc3cc(O)ccc32)c2ccc(NC(=S)*)cc21; Phe(4-NO2) = N[C@@H](Cc1ccc([N+](=O)[O-])cc1)C(=O)O; Phe(3,4-F2) = N[C@@H](Cc1ccc(F)c(F)c1)C(=O)O; Bip = N[C@@H](Cc1ccc(-c2ccccc2)cc1)C(=O)O; Phe(4-Br) = N[C@@H](Cc1ccc(Br)cc1)C(=O)O; Phe(4-Cl) = N[C@@H](Cc1ccc(Cl)cc1)C(=O)O; Hag = O=C([C@H](CCC=[*:3])N[*:1])[*:2]; Phe(3-F) = N[C@@H](Cc1cccc(F)c1)C(=O)O; Phe(4-F) = N[C@@H](Cc1ccc(F)cc1)C(=O)O; Phe(4-I) = N[C@@H](Cc1ccc(I)cc1)C(=O)O; Gla = N[C@@H](CC(C(=O)O)C(=O)O)C(=O)O; dAllylGly = C=CC[C@@H](N)C(=O)O; AllylGly = C=CC[C@H](N)C(=O)O

PRMT5/MEP50 complex (Homo sapiens, UniProt O14744), sequence (O14744 whole entry): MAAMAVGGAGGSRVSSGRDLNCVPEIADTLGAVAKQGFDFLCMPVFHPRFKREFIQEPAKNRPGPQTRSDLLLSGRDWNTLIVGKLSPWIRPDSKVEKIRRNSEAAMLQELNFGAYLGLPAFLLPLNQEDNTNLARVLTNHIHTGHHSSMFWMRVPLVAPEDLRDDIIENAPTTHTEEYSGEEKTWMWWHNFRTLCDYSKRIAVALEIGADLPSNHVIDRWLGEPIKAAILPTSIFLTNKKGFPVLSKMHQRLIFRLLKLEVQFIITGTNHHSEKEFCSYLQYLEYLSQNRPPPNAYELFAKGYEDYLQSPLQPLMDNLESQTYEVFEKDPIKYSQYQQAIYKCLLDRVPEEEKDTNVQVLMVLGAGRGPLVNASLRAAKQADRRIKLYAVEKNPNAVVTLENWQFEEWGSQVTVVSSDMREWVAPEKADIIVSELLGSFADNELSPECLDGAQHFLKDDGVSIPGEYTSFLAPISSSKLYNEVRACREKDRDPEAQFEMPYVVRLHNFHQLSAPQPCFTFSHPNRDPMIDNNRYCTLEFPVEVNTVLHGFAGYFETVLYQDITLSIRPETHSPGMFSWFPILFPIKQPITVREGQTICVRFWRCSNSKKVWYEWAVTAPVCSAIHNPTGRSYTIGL
PRMT5/MEP50 complex (Homo sapiens, UniProt O14744), sequence (Q9BQA1 whole entry, further chain): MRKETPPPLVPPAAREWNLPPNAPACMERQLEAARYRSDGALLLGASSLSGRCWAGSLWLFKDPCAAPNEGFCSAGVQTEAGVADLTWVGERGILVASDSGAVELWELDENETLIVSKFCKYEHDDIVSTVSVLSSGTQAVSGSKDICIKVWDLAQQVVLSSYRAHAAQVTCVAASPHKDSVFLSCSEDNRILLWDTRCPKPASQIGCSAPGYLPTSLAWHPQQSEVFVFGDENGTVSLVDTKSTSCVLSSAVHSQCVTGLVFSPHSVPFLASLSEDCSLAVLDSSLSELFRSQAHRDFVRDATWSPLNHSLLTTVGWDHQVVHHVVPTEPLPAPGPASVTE

The first test addresses PRMT5/MEP50 complex (Homo sapiens, UniProt O14744). The test is described as follows: (§1) Binding affinity to PRMT5/MEP50 (unknown origin) assessed as dissociation constant by FITC- Competitive binding assay. Format: protein-complex assay.
For orientation: Kd means the equilibrium constant for the complex coming apart. Regarding `CC(=O)N[C@H](C(=O)N1CCC[C@H]1C(=O)NCC(=O)N[C@@H](CCC(N)=O)C(=O)N[C@@H](Cc1ccccc1)C(=O)N[C@@H](CC(=O)O)C(=O)N[C@@H](CC(=O)O)C(=O)N[C@@H](C)C(=O)N[C@@H](CC(C(=O)O)C(=O)O)C(=O)N[C@@H](CCCCNC(=S)Nc1ccc2c(c1)C(=O)OC21c2ccc(O)cc2Oc2cc(O)ccc21)C(N)=O)C(C)C` (Ac-VPGQFDDA[Gla]K(FITC)-NH2), the Kd stood at 245 nM.
`CC(=O)N[C@H](C(=O)N1CCC[C@H]1C(=O)NCC(=O)N[C@@H](CCC(N)=O)C(=O)N[C@@H](Cc1ccc(F)c(F)c1)C(=O)N[C@@H](CC(=O)O)C(=O)N[C@@H](CC(=O)O)C(=O)N[C@@H](C)C(=O)N[C@@H](CC(=O)O)C(=O)N[C@@H](CCCCNC(=S)Nc1ccc2c(c1)C(=O)OC21c2ccc(O)cc2Oc2cc(O)ccc21)C(N)=O)C(C)C` (Ac-VPGQ[Phe(3,4-F2)]DDADK(FITC)-NH2): the Kd came out at 412 nM.
For the compound `CC(=O)N[C@H](C(=O)N1CCC[C@H]1C(=O)N[C@H]1CC/C=C/C[C@@H](C(=O)N[C@@H](CC(=O)O)C(=O)N[C@@H](C)C(=O)N[C@@H](CC(=O)O)C(=O)N[C@@H](CCCCNC(=S)Nc2ccc3c(c2)C(=O)OC32c3ccc(O)cc3Oc3cc(O)ccc32)C(N)=O)NC(=O)[C@H](Cc2ccccc2)NC(=O)[C@H](CCC(N)=O)NC1=O)C(C)C` (Ac-VP[Hag]QF[AllylGly]DADK(FITC)-NH2; staple (E) 3-6), the Kd was found to be 562 nM.
Take `CC(=O)N[C@H](C(=O)N1CCC[C@H]1C(=O)NCC(=O)N[C@@H](CCC(N)=O)C(=O)N[C@@H](Cc1ccc(Cl)cc1)C(=O)N[C@@H](CC(=O)O)C(=O)N[C@@H](CC(=O)O)C(=O)N[C@@H](C)C(=O)N[C@@H](CC(C(=O)O)C(=O)O)C(=O)N[C@@H](CCCCNC(=S)Nc1ccc2c(c1)C(=O)OC21c2ccc(O)cc2Oc2cc(O)ccc21)C(N)=O)C(C)C` (Ac-VPGQ[Phe(4-Cl)]DDA[Gla]K(FITC)-NH2): the equilibrium dissociation constant (Kd) came out at 144 nM.
As for `CC(=O)N[C@H](C(=O)N1CCC[C@H]1C(=O)NCC(=O)N[C@@H](CCC(N)=O)C(=O)N[C@@H](Cc1ccc([N+](=O)[O-])cc1)C(=O)N[C@@H](CC(=O)O)C(=O)N[C@@H](CC(=O)O)C(=O)N[C@@H](C)C(=O)N[C@@H](CC(=O)O)C(=O)N[C@@H](CCCCNC(=S)Nc1ccc2c(c1)C(=O)OC21c2ccc(O)cc2Oc2cc(O)ccc21)C(N)=O)C(C)C` (Ac-VPGQ[Phe(4-NO2)]DDADK(FITC)-NH2), the Kd came out at 232 nM.
As for `CC(=O)N[C@H](C(=O)N1CCC[C@H]1C(=O)N[C@H]1CCCCCC[C@@H](C(=O)N[C@@H](CC(=O)O)C(=O)N[C@@H](C)C(=O)N[C@@H](CC(=O)O)C(=O)N[C@@H](CCCCNC(=S)Nc2ccc3c(c2)C(=O)OC32c3ccc(O)cc3Oc3cc(O)ccc32)C(N)=O)NC(=O)[C@H](Cc2ccccc2)NC(=O)[C@H](CCC(N)=O)NC1=O)C(C)C`, the dissociation constant Kd was over 2000 nM.
Turning to `CC(C)[C@H](NC(=O)[C@H](CCCNC(=N)N)NC(=O)[C@H](CO)NC(=O)COCCOCCNC(=S)Nc1ccc2c(c1)C(=O)OC21c2ccc(O)cc2Oc2cc(O)ccc21)C(=O)N[C@H](C(=O)N1CCC[C@H]1C(=O)N[C@H]1CCCC[C@@H](C(=O)N[C@@H](CC(=O)O)C(=O)N[C@@H](C)C(=O)N[C@@H](CC(=O)O)C(N)=O)NC(=O)[C@H](Cc2ccccc2)NC(=O)[C@H](CCC(N)=O)NC1=O)C(C)C`, the Kd was found to be 1290 nM.
With `CC(=O)N[C@H](C(=O)N1CCC[C@H]1C(=O)NCC(=O)N[C@@H](CCC(N)=O)C(=O)N[C@@H](Cc1ccc(F)cc1)C(=O)N[C@@H](CC(=O)O)C(=O)N[C@@H](CC(=O)O)C(=O)N[C@@H](C)C(=O)N[C@@H](CC(=O)O)C(=O)N[C@@H](CCCCNC(=S)Nc1ccc2c(c1)C(=O)OC21c2ccc(O)cc2Oc2cc(O)ccc21)C(N)=O)C(C)C` (Ac-VPGQ[Phe(4-F)]DDADK(FITC)-NH2), the dissociation constant Kd worked out at 391 nM.
Turning to `CC(=O)N[C@H](C(=O)N1CCC[C@H]1C(=O)NCC(=O)N[C@@H](CCC(N)=O)C(=O)N[C@@H](Cc1ccc([N+](=O)[O-])cc1)C(=O)N[C@@H](CC(=O)O)C(=O)N[C@@H](CC(=O)O)C(=O)N[C@@H](C)C(=O)N[C@@H](CC(C(=O)O)C(=O)O)C(=O)N[C@@H](CCCCNC(=S)Nc1ccc2c(c1)C(=O)OC21c2ccc(O)cc2Oc2cc(O)ccc21)C(N)=O)C(C)C` (Ac-VPGQ[Phe(4-NO2)]DDA[Gla]K(FITC)-NH2), the Kd came out at 78 nM.
The same measure, in the same setting: as for `CC(=O)N[C@H](C(=O)N1CCC[C@H]1C(=O)NCC(=O)N[C@@H](CCC(N)=O)C(=O)N[C@@H](Cc1ccc(-c2ccccc2)cc1)C(=O)N[C@@H](CC(=O)O)C(=O)N[C@@H](CC(=O)O)C(=O)N[C@@H](C)C(=O)N[C@@H](CC(=O)O)C(=O)N[C@@H](CCCCNC(=S)Nc1ccc2c(c1)C(=O)OC21c2ccc(O)cc2Oc2cc(O)ccc21)C(N)=O)C(C)C` (Ac-VPGQ[Bip]DDADK(FITC)-NH2), the figure is 447 nM; as for `CC(=O)N[C@H](C(=O)N1CCC[C@H]1C(=O)NCC(=O)N[C@@H](CCC(N)=O)C(=O)N[C@@H](Cc1cccc(F)c1)C(=O)N[C@@H](CC(=O)O)C(=O)N[C@@H](CC(=O)O)C(=O)N[C@@H](C)C(=O)N[C@@H](CC(=O)O)C(=O)N[C@@H](CCCCNC(=S)Nc1ccc2c(c1)C(=O)OC21c2ccc(O)cc2Oc2cc(O)ccc21)C(N)=O)C(C)C` (Ac-VPGQ[Phe(3-F)]DDADK(FITC)-NH2), 654 nM.
Take `CC(=O)N[C@H](C(=O)N1CCC[C@H]1C(=O)NCC(=O)N[C@@H](CCC(N)=O)C(=O)N[C@@H](Cc1ccc(I)cc1)C(=O)N[C@@H](CC(=O)O)C(=O)N[C@@H](CC(=O)O)C(=O)N[C@@H](C)C(=O)N[C@@H](CC(=O)O)C(=O)N[C@@H](CCCCNC(=S)Nc1ccc2c(c1)C(=O)OC21c2ccc(O)cc2Oc2cc(O)ccc21)C(N)=O)C(C)C` (Ac-VPGQ[Phe(4-I)]DDADK(FITC)-NH2): the Kd was determined as 279 nM.
As for `CC(=O)N[C@H](C(=O)N1CCC[C@H]1C(=O)NCC(=O)N[C@@H](CCC(N)=O)C(=O)N[C@@H](Cc1ccc(Cl)cc1)C(=O)N[C@@H](CC(=O)O)C(=O)N[C@@H](CC(=O)O)C(=O)N[C@@H](C)C(=O)N[C@@H](CC(=O)O)C(=O)N[C@@H](CCCCNC(=S)Nc1ccc2c(c1)C(=O)OC21c2ccc(O)cc2Oc2cc(O)ccc21)C(N)=O)C(C)C` (Ac-VPGQ[Phe(4-Cl)]DDADK(FITC)-NH2), the Kd was 250 nM.
For `CC(=O)N[C@H](C(=O)N1CCC[C@H]1C(=O)NCC(=O)N[C@@H](CCC(N)=O)C(=O)N[C@@H](Cc1ccc(Br)cc1)C(=O)N[C@@H](CC(=O)O)C(=O)N[C@@H](CC(=O)O)C(=O)N[C@@H](C)C(=O)N[C@@H](CC(=O)O)C(=O)N[C@@H](CCCCNC(=S)Nc1ccc2c(c1)C(=O)OC21c2ccc(O)cc2Oc2cc(O)ccc21)C(N)=O)C(C)C` (Ac-VPGQ[Phe(4-Br)]DDADK(FITC)-NH2), the Kd was 317 nM.

The target in a further test is PRMT5/MEP50 complex (Homo sapiens, UniProt O14744+Q9BQA1). The test is described as §1. Format: protein-complex assay.
PRMT5/MEP50 complex (Homo sapiens, UniProt O14744+Q9BQA1), sequence (O14744 whole entry): as the sequence (O14744 whole entry) above
PRMT5/MEP50 complex (Homo sapiens, UniProt O14744+Q9BQA1), sequence (Q9BQA1 whole entry): as the sequence (Q9BQA1 whole entry, further chain) above
In the case of `CC(=O)N[C@H](C(=O)N1CCC[C@H]1C(=O)N[C@H]1CCCCCC[C@H](C(=O)N[C@@H](CC(=O)O)C(=O)N[C@@H](C)C(=O)N[C@@H](CC(=O)O)C(=O)N[C@@H](CCCCNC(=S)Nc2ccc3c(c2)C(=O)OC32c3ccc(O)cc3Oc3cc(O)ccc32)C(N)=O)NC(=O)[C@H](Cc2ccccc2)NC(=O)[C@H](CCC(N)=O)NC1=O)C(C)C`, the equilibrium dissociation constant (Kd) was over 2000 nM.
Consider `CC(C)[C@H](NC(=O)[C@H](CCCNC(=N)N)NC(=O)[C@H](CO)NC(=O)COCCOCCNC(=S)Nc1ccc2c(c1)C(=O)OC21c2ccc(O)cc2Oc2cc(O)ccc21)C(=O)N[C@H](C(=O)N1CCC[C@H]1C(=O)N[C@H]1CCCC[C@H](C(=O)N[C@@H](CC(=O)O)C(=O)N[C@@H](C)C(=O)N[C@@H](CC(=O)O)C(N)=O)NC(=O)[C@H](Cc2ccccc2)NC(=O)[C@H](CCC(N)=O)NC1=O)C(C)C`, for which the Kd was over 2000 nM.
Regarding `CC(C)[C@H](NC(=O)[C@H](CCCNC(=N)N)NC(=O)[C@H](CO)NC(=O)COCCOCCNC(=S)Nc1ccc2c(c1)C(=O)OC21c2ccc(O)cc2Oc2cc(O)ccc21)C(=O)N[C@H](C(=O)N1CCC[C@H]1C(=O)N[C@H]1CCNC(=O)C[C@H](C(=O)N[C@@H](CC(=O)O)C(=O)N[C@@H](C)C(=O)N[C@@H](CC(=O)O)C(N)=O)NC(=O)[C@H](Cc2ccccc2)NC(=O)[C@H](CCC(N)=O)NC1=O)C(C)C`, the dissociation constant Kd was over 2000 nM.
Take `CC(=O)N[C@H](C(=O)N1CCC[C@H]1C(=O)N[C@H]1CC/C=C/C[C@H](C(=O)N[C@@H](CC(=O)O)C(=O)N[C@@H](C)C(=O)N[C@@H](CC(=O)O)C(=O)N[C@@H](CCCCNC(=S)Nc2ccc3c(c2)C(=O)OC32c3ccc(O)cc3Oc3cc(O)ccc32)C(N)=O)NC(=O)[C@H](Cc2ccccc2)NC(=O)[C@H](CCC(N)=O)NC1=O)C(C)C` (Ac-VP[Hag]QF[dAllylGly]DADK(FITC)-NH2; staple (E) 3-6): the dissociation constant (Kd) is over 2000 nM.
As for `CC(C)[C@H](NC(=O)[C@H](CCCNC(=N)N)NC(=O)[C@H](CO)NC(=O)COCCOCCNC(=S)Nc1ccc2c(c1)C(=O)OC21c2ccc(O)cc2Oc2cc(O)ccc21)C(=O)N[C@H](C(=O)N1CCC[C@H]1C(=O)N[C@H]1C/C=C/C[C@H](C(=O)N[C@@H](CC(=O)O)C(=O)N[C@@H](C)C(=O)N[C@@H](CC(=O)O)C(N)=O)NC(=O)[C@H](Cc2ccccc2)NC(=O)[C@H](CCC(N)=O)NC1=O)C(C)C` (stereo in doubt; form 1), the Kd is over 2000 nM.
Still for that read-out and setting: the same measure for `CC(=O)N[C@H](C(=O)N1CCC[C@H]1C(=O)N[C@H]1CCCCC[C@H](C(=O)N[C@@H](CC(=O)O)C(=O)N[C@@H](C)C(=O)N[C@@H](CC(=O)O)C(=O)N[C@@H](CCCCNC(=S)Nc2ccc3c(c2)C(=O)OC32c3ccc(O)cc3Oc3cc(O)ccc32)C(N)=O)NC(=O)[C@H](Cc2ccccc2)NC(=O)[C@H](CCC(N)=O)NC1=O)C(C)C`: over 2000 nM; for `CC(=O)N[C@H](C(=O)N1CCC[C@@H]1C(=O)N[C@H]1CCCCC[C@@H](C(=O)N[C@@H](CC(=O)O)C(=O)N[C@@H](C)C(=O)N[C@@H](CC(C(=O)O)C(=O)O)C(=O)N[C@@H](CCCCNC(=S)Nc2ccc3c(c2)C(=O)OC32c3ccc(O)cc3Oc3cc(O)ccc32)C(N)=O)NC(=O)[C@H](Cc2ccc([N+](=O)[O-])cc2)NC(=O)[C@H](CCC(N)=O)NC1=O)C(C)C`: 89 nM; for `CC(=O)N[C@H](C(=O)N1CCC[C@H]1C(=O)N[C@H]1CC/C=C/CC[C@H](C(=O)N[C@@H](CC(=O)O)C(=O)N[C@@H](C)C(=O)N[C@@H](CC(=O)O)C(=O)N[C@@H](CCCCNC(=S)Nc2ccc3c(c2)C(=O)OC32c3ccc(O)cc3Oc3cc(O)ccc32)C(N)=O)NC(=O)[C@H](Cc2ccccc2)NC(=O)[C@H](CCC(N)=O)NC1=O)C(C)C`: over 2000 nM.
